Values quoted from earlier work, collected in patent publication US20090318556A1, “BIOMARKERS FOR DETECTING RADIATION EXPOSURE: METHODS AND USES THEREOF” (priority 2008, published 2009).

What was measured:
PPARα = target: T1, PPARα (Mus musculus, UniProt P23204); details: mice
T1 construct: host or cells: mice (whole animal, endogenous receptor)
T1 sequence (P23204 1-468): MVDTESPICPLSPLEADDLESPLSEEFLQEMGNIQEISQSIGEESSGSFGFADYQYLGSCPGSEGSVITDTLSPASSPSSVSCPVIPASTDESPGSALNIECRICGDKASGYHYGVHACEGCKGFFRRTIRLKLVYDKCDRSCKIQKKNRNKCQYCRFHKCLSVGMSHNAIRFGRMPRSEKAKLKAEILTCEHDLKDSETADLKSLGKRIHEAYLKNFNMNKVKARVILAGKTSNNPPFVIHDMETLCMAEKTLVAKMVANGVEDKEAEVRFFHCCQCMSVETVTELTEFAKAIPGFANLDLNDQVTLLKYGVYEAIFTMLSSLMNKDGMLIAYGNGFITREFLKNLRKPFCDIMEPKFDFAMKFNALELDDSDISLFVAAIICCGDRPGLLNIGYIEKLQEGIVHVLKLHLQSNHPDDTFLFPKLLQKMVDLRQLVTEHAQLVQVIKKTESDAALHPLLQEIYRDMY

[1] = in vivo, iv

CCCCCC(=O)NCC(=O)O [N-Hexanoylglycine]
urinary excretion reduced after activation of PPARα (PPARα): 20 fold

Cc1cn([C@H]2C[C@H](O)[C@@H](CO)O2)c(=O)[nH]c1=O [[^3H]thymidine]
radioactivity in urine relative to plasma [1]: approximately 100 times
